Measurements as given in article PMC4283194 (Neuroimage, 2014).
Like-named read-outs stand apart in the source and are kept apart here.

Assays:
[1] = target: T1, CB1 receptor (Homo sapiens, UniProt P21554); experiment: [11C]MePPEP PET, modified standard uptake values (mSUV); format: in vivo; details: ~30–60 min after injection
T1 construct: assess the stability of CB1-receptor quantification in humans in vivo; from tissue; host or cells: living human brain (healthy volunteers), in vivo PET
Procedure: Modified standard uptake values (mSUVs; [Innis et al., 2007]) for frames 25–31, i.e. from 29 min 50 s to 58 min 50 s after injection, were also derived for the ROIs according to ([Goffin et al., 2011]):(4) activity×weightkg+70kg/2/injecteddose.

[2] = target: T1, CB1 receptor; experiment: [11C]MePPEP PET, VT by reversible two-compartment model with variable blood volume (2kbv); format: in vivo
Procedure: (§1) Continuous and intermittent blood samples were collected to allow the subsequent generation of metabolite-corrected arterial plasma time–activity curves (TACs) ([Hammers et al., 2008]). During the first 15 min blood was withdrawn continuously at a rate of 300 ml/h and radioactivity measured in a BGO detection system ([Jones et al., 1994]). To quantify plasma and whole blood radioactivity, as well as to allow quantification of the parent fraction of the radiotracer, intermittent discrete (10 ml) samples were taken with heparinised syringes before the scan (baseline) and at the following time points after scan start: 3, 5, 10, 15, 20, 30, and 50 min. At 75 min, a larger 17 ml sample was taken to allow quantification despite radioactivity decay. […] Continuous plasma input functions (IF) were derived by cross-calibration and combination of the continuous and discrete data, multiplication with the fitted plasma-over-blood ratio, and correction for parent radiotracer fraction, as described in detail in previous studies ([Hammers et al., 2007a], [Jones et al., 1994]).
In this model, three microparameters are derived: K1 is the influx of the ligand from the plasma to the tissue compartment containing free, non-specifically bound, and specifically bound ligand, k2 is the efflux constant from the ROI back to plasma ([Cunningham et al., 1991], [Huang et al., 1980]), and bv is a variable blood volume term. VT is then calculated according to the compartmental model equation ([Watabe et al., 2006]):(1) VT=K1/k2.

[3] = target: T1, CB1 receptor; experiment: [11C]MePPEP PET, VT by classic spectral analysis on ROI data (SA-ROIs); format: in vivo; parameters: unit not given beside the values
Procedure: as §1
Volumes of distribution (VTs) ([Innis et al., 2007]) for each ROI were obtained from the dynamic images and the metabolite-corrected IFs using spectral analysis (SA) ([Cunningham and Jones, 1993], [Cunningham et al., 1993], [Turkheimer et al., 1994]). The fast frequency boundary was kept at the default value of 0.1 s^− 1. […] Based on previous work with another tracer with relatively slow kinetics ([Hammers et al., 2007a]), we changed this to 0.00063 s^− 1 (log10 = − 3.20) in order to reduce noise.

[4] = parameters: method as in Terry et al., 2010a; details: 370 MBq injected; ref Terry et al., 2010a; cited from earlier work
[5] = target: T1, CB1 receptor; experiment: [11C]MePPEP PET, VT by classic spectral analysis parametric maps (SA-maps); format: in vivo
Procedure: as §1
The resulting parametric maps of VT values were then sampled in the eight selected ROIs.

[6] = system: CB1 receptor; parameters: method as in Terry et al., 2008, Terry et al., 2010b, Yasuno et al., 2008; details: determined using CB1 knockout mouse brain, ref Terry et al., 2008, Terry et al., 2010b, Yasuno et al.; cited from earlier work
[7] = target: T1, CB1 receptor; experiment: [11C]MePPEP PET, VT by rank shaping regularised spectral analysis (RS-SA); format: in vivo; parameters: VT median: unit not given beside the values
Procedure: as §1
VT values were generated directly from dynamic data sampled using ROIs with rank shaping (RS; orthogonalized-functional-base) regularisation of SA ([Turkheimer et al., 2003]) using in-house “Clickfit” software. As previously described by [Turkheimer et al. (2003)], we used the metabolite-corrected IF, a logarithmically spaced basis, an exponential range of bases extending to − 3.2, and the regional tissue TAC. TACs were weighted according to ([Gunn et al., 1998]):(3) Wi=Li/Tiforframei=1,2,3…35 [wi — weight for frame i; Li — length of frame i (seconds); and Ti — rate of true coincidences (per second)].
The VT for each ROI was then obtained as the plateau of the VT(R), where R is the expected signal-to noise ratio that is used as the regularisation parameter (R) in rank-shaping (Fig. 2; ([Turkheimer et al., 2003])).

[8] = target: T1, CB1 receptor; experiment: [11C]MePPEP PET, VT by reversible three-compartment model with variable blood volume (4kbv); format: in vivo; parameters: unit not given beside the values
Procedure: as §1
K1 and k2 were calculated as for the 2kbv compartmental model described above; in addition, two additional rate constants were estimated to describe transfer relating to the third compartment: k3, which describes the transfer from the free and non-specifically bound compartment to the specifically bound (third) compartment; and k4, which describes the opposite transfer ([Cunningham et al., 1991], [Huang et al., 1980]). Again, a variable blood volume term was also computed. According to compartmental model equations ([Gunn et al., 2001], [Watabe et al., 2006]):(2) VT=K1/k21+k3/k4.

[9] = system: CB1 receptor; parameters: method as in Terry et al., 2008, Terry et al., 2010b, Yasuno et al., 2008; details: monkey brain, ref Terry et al., 2008, Terry et al., 2010b, Yasuno et al.; cited from earlier work

T1 sequence (P21554 whole entry): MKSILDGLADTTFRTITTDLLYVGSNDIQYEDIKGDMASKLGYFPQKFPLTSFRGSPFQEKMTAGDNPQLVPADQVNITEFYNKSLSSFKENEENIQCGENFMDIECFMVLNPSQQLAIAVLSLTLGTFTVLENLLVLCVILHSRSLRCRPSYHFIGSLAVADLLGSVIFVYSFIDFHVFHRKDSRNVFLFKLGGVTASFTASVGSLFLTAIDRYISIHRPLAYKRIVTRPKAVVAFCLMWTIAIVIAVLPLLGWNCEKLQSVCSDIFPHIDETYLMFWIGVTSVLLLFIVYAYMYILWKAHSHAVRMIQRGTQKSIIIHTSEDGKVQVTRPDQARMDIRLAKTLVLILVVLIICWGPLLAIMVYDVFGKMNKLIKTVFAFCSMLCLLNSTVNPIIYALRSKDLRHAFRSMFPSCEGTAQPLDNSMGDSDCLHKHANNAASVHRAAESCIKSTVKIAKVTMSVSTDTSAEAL

COc1cccc([C@H]2C[C@@H](N[C@H](C)c3ccccc3)C(=O)N2c2ccc(C(F)(F)F)cc2)c1 [[^11C]MePPEP, (3R,5R)-5-(3-methoxy-phenyl)-3-((R)-1-phenyl-ethylamino)-1-(4-trifluoro-methyl-phenyl)-pyrrolidin-2-one]
mSUV median ([1]; ACG): 3.2 | mSUV median ([1]; Accumbens): 3.0 | mSUV median ([1]; Caudate): 2.9 | mSUV median ([1]; IFG): 3.2 | mSUV median ([1]; Pons): 0.9 | VT median ([2]; ACG): 10.3 | VT median ([2]; Hippocampus): 8.0 | VT median ([2]; Pallidum): 10.8 | VT median ([2]; Pons): 3.0 | VT median ([2]; Thalamus): 5.1 | VT median ([3]; ACG): 14.4 | VT median ([3]; Accumbens): 13.9 | VT median ([3]; Hippocampus): 12.4 | VT median ([3]; IFG): 13.9 | VT median ([3]; Pallidum): 15.7 | VT median ([3]; Pons): 6.0 | VT median ([3]; Thalamus): 9.6 | effective dose per scan [4]: ~ 1.7 mSv | VT median ([5]; ACG): 14.8 | VT median ([5]; Caudate): 12.9 | VT median ([5]; Hippocampus): 11.5 | VT median ([5]; IFG): 14.8 | VT median ([5]; Pallidum): 15.8 | VT median ([5]; Pons): 4.4 | VT median ([5]; Thalamus): 13.2 | specific binding [6]: 65% | VT median ([7]; ACG): 9.9 | VT from VT(R) plateau, example plot ([7]; Hippocampus, single example): 12 | VT median ([7]; IFG): 9.9 | VT median ([7]; Pallidum): 10.3 | VT median ([7]; Pons): 4.3 | VT median ([7]; Thalamus): 6.5 | VT median ([8]; ACG): 9.0 | VT median ([8]; Accumbens): 13.6 | VT median ([8]; Caudate): 6.2 | VT median ([8]; Hippocampus): 13.4 | VT median ([8]; Pallidum): 10.6 | VT median ([8]; Pons): 5.3 | VT median ([8]; Thalamus): 6.1 | specific binding [9]: > 85%
